Measured values from PubChem BioAssay (NCI).
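Where inhibition never reached the appropriate level, the endpoint shown equals the highest concentration tested. Otherwise, values were interpolated linearly from a five-concentration, 48-hour dose response in 96-well plates. At the GI50, growth is halved. TGI: concentration producing complete growth inhibition.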

Tests used:
Assay in all cases: DTP human tumour cell line panel, 48 h
SK-OV-3 ovarian = test system: SK-OV-3 ovarian
HT29 colon = test system: HT29 colon
MALME-3M melanoma = test system: MALME-3M melanoma
HOP-62 NSCLC = test system: HOP-62 NSCLC
OVCAR-4 ovarian = test system: OVCAR-4 ovarian
SF-295 CNS = test system: SF-295 CNS
SF-268 CNS = test system: SF-268 CNS
CAKI-1 renal = test system: CAKI-1 renal
HOP-92 NSCLC = test system: HOP-92 NSCLC
ACHN renal = test system: ACHN renal

| SMILES | GI50 (SK-OV-3 ovarian) [µM] | TGI (SK-OV-3 ovarian) [µM] | GI50 (HT29 colon) [µM] | TGI (HT29 colon) [µM] | GI50 (MALME-3M melanoma) [µM] | TGI (MALME-3M melanoma) [µM] | GI50 (HOP-62 NSCLC) [µM] | TGI (HOP-62 NSCLC) [µM] | GI50 (OVCAR-4 ovarian) [µM] | TGI (OVCAR-4 ovarian) [µM] | GI50 (SF-295 CNS) [µM] | TGI (SF-295 CNS) [µM] | GI50 (SF-268 CNS) [µM] | TGI (SF-268 CNS) [µM] | GI50 (CAKI-1 renal) [µM] | TGI (CAKI-1 renal) [µM] | GI50 (HOP-92 NSCLC) [µM] | TGI (HOP-92 NSCLC) [µM] | GI50 (ACHN renal) [µM] | TGI (ACHN renal) [µM] |
| --- | --- | --- | --- | --- | --- | --- | --- | --- | --- | --- | --- | --- | --- | --- | --- | --- | --- | --- | --- | --- |
| C=C1C(=O)O[C@H]2[C@H]1CC/C(COC(=O)C(=O)c1c[nH]c3ccccc13)=C\CC[C@@]1(C)O[C@@H]21 | 11.9 | 24.6 | 1.21 | 2.68 | 2.09 | 4.33 | 1.72 | 4 | 5.18 | 25.9 | 11.8 | 24.9 | 2.39 | 7.68 | 2.97 | 13.5 | 2.04 | 4.49 | 2.13 | 6.1 |
| O=C(Nc1ccc(Cl)c(C(F)(F)F)c1)C(=O)C(C(=O)/C=C/c1ccccc1)C1OC(=O)c2ccccc21 (stereo not given) |  | > 100 |  | > 100 |  | > 100 |  | > 100 |  | > 100 |  | > 100 |  | > 100 |  | > 100 |  | > 100 |  | > 100 |
| Cn1ccnc1C(=O)/C=C/c1ccc(CC(=O)Nc2ccc(Cl)cc2)cc1 | 8.79 | > 25 | 0.889 | > 25 | 14.2 | > 25 | 2.16 | > 25 | 2.18 | > 25 | 7.39 | > 25 | 1.24 | > 25 | 13.5 | > 25 | > 25 | > 25 | 15 | > 25 |
| COc1cccc(-c2nn(-c3ccccc3)cc2-c2ccnc(NCCNS(=O)(=O)c3ccc(Cl)cc3)c2)c1 | 4.43 | > 100 | 3.37 | 11.3 | 3.8 | > 100 | 13.5 | > 100 | 4.15 | > 100 | 3.89 | 57.5 | 5.49 | > 100 | 5.61 | > 100 | 2.46 | 9.48 | 4.56 | > 100 |
| O=C(O)c1ccc(NC(=O)C2C(=O)C(=O)N(c3ccc(C(=O)O)cc3)C2=O)cc1 (stereo not given) |  | > 100 |  | > 100 |  | > 100 |  | > 100 |  | > 100 |  | > 100 |  | > 100 |  | > 100 |  | > 100 |  | > 100 |
| Cc1ccc(NC(c2ccccc2)c2ccc3cccnc3c2O)cc1 (stereo not given) |  | 23.8 |  | 13.6 |  | 13.8 |  | 19.9 |  | 16.4 |  | 16.1 |  | 13.6 |  | 16.4 |  | 16 |  | 15.5 |
